Measured values taken from patent publication US20130252843A1, “METHOD OF MAKING AND USING FLUORESCENT-TAGGED NANOPARTICLES AND MICROARRAYS” (THE STATE OF OREGON ACTING BY AND THROUGH THE STATE BOARD …, priority 2010, published 2013).
Values joined by “and” are separate entries in the source; they are usually repeats but may differ in a detail not shown here. Identical values can stand only once. Like-named read-outs stand apart in the source and are kept apart here.

Experiments:
CVN-Q = CVN-Q (Nostoc ellipsosporum, UniProt P81180, Q50C)
CVN-M = CVN-M (Nostoc ellipsosporum, UniProt P81180, E41A/N42A/T57A/R76A/Q78G)
Con A [1] = biological target: T1, Con A (Canavalia ensiformis, UniProt P02866)
T1 construct: purchased Sigma-Aldrich Type IV (catalogue number not given)

[2] = biological target: blindly prepared lectins (U1-U7) (Glycine max, UniProt P05046); type: binding; set-up: unit not given here
Method: (§1) The unspecific binding sites of Sugar coupled Au-PFPA was inhibited by the addition of BSA (3% BSA, 0.2% Tween in PBS buffer pH 7). The 1,500 μL of sugar-coupled Au-PFPA was centrifuged at 9,000 rpm for 8 minutes and was redissolved in a PBS buffer with 3% BSA (0.2% Tween). The volume was made up to 900 μL. The resultant solution was incubated at room temperature with gentle shaking for 1 hour. The BSA blocked Au-PFPA-sugar nanoparticle was centrifuged at 10,000 rpm for 6 minutes and the excess BSA was removed. To a volume of 1,500 μL solution 10 mg/mL lectin (Con A—Concanavalin A, Canavalia ensiformis jack bean protein, SBA—soybean agglutinin, Glycine max and PNA—Peanut Agglutinin, Arachis hypogaea all purchased from Sigma Aldrich) was introduced the resultant solution was incubated at room temperature while gently shaking.
(§2) To test the training matrix and its strength to identify individual lectins, seven blindly prepared lectins (U1-U7) were used as test samples. The procedure for each test sample is the same as that used for the known samples used in the training matrix. The final SPR shift (Table 14) was used in the training matrix (Table 10) for prediction.

ConA-FSNPs = biological target: T2, ConA-FSNPs (Canavalia ensiformis, UniProt P02866); assay: Carbohydrate microarray incubated with ConA-FSNPs, fluorescence imaging; type: binding; conditions: PS coating; ConA-FSNPs 0.5 mg/ml
T2 construct: purchased Sigma-Aldrich Type IV
Method: This example concerns the fabrication of carbohydrate microarrays. […] The slides were then reacted with PAAm-4-PFPA solution at 50° C. for 5 hours, and sonicated twice in H2O for 5 minutes each time. Solutions of carbohydrates were prepared in H2O. […] The slides were dried under oil pump for 1 hour. A solution of PS or PEO in CHCl3 (5 mg/ml) was spinning-coated on the slides. The Slides were then covered with a 280-nm long-path optical filter (WG-280, Schott Glass), irradiated with a 450-W medium pressure Hg lamp (Hanovia) for 9 min, sonicated 5 min in CHCl3 and 5 minutes in H2O.
This example concerns microarray assay and fluorescence imaging. Carbohydrate microarrays were incubated in a 0.5 mg/ml solution of ConA-FSNPs in HEPES (pH 7.5, 1 mM CaCl2, 1 mM MnCl2) for 1 hour, rinsed with HEPES buffer 3 times and dried. The slides were scanned using a Genepix 4000B microarray scanner at excitation of 532 nm. Image analysis was carried out with Axon Genepix Pro 5.1 analysis software (Molecular Devices Corporation, Union City, Calif.).
FIG. 52 provides the fluorescence images of carbohydrate microarrays with PS or PEO coating incubated with ConA-FSNPs at 0.5 mg/ml. […] However, for carbohydrate microarrays having a PEO coating, the signal from those “high-intensity” carbohydrate targets was negative (FIG. 53).

[3] = UV irradiation photostability; type: physicochemical; conditions: 450-W medium-pressure Hg lamp, 10 minutes; of the original value
Method: To confirm that the entrapped FITC would withstand the UV irradiation conditions used for a subsequent photocoupling reaction, a solution containing FITC-doped SNPs was irradiated with a 450-W medium-pressure Hg lamp for 10 minutes. […] See, FIG. 6. On the other hand, when the […] was irradiated under the same conditions, the fluorescent intensity was reduced to about 50% of the original value. See, FIG. 7.

PNA, Peanut Agglutinin = biological target: T3, PNA, Peanut Agglutinin (Arachis hypogaea, UniProt P02872); conditions: cited from earlier work
T3 construct: purchased Sigma-Aldrich

[4] = biological target: RCA, Ricinus Communis Agglutinin I; conditions: cited from earlier work
SBA (Soybean Agglutinin) = SBA (Soybean Agglutinin) (Glycine max, UniProt P05046); conditions: free glycan; cited from earlier work
PNA [5] = biological target: T4, PNA (Arachis hypogaea, UniProt P02872); conditions: free glycan; cited from earlier work
T4 construct: purchased Sigma-Aldrich
T4 sequence (P02872 24-273): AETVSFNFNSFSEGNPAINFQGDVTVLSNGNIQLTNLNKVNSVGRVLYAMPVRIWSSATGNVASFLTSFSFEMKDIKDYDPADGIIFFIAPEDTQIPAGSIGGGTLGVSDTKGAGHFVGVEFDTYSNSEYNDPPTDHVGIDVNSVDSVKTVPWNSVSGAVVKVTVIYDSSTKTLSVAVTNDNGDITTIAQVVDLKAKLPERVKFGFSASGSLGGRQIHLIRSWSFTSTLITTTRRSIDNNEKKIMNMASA

[6] = biological target: DBA (Dolichos Biflorus Agglutinin) (Vigna unguiculata subsp. cylindrica, UniProt P05045); conditions: free glycan; cited from earlier work
[7] = biological target: RCA (Ricinus Communis Agglutinin I) (Ricinus communis, UniProt P06750); conditions: free glycan; cited from earlier work
Con A [8] = biological target: T1, Con A; assay: Protein bio assay, SPR shift of sugar coupled Au-PFPA nanoparticles with lectin; type: binding; set-up: unit: nm; conditions: replicates
Excerpt: (§3) In other particular embodiments, the interactions between one or more targets and one or more PHPA-derived nanoparticle probes can be measured using absorbance spectroscopy. Particular embodiments concern using surface plasmon resonance. In these embodiments, both the λmax produced before the PHPA-derived nanoparticle probe interacts with the target and the λmax produced after the PHPA-derived nanoparticle probe interacts with the target are detected. The change in λmax provides a numerical number that can be used in further statistical analysis.
as §1, with “shaking. […]” for “shaking.”

PNA [9] = biological target: T4, PNA; assay: as above; type: binding; set-up: unit: nm; conditions: replicates
Excerpt: as §3, §1
(§4) A training matrix was created using three lectins (Con A, SBA and PNA) and four types of sugar-bound Au-PFPA nanoparticles. Each assay was repeated three times, providing a 3×4×3 training matrix (Table 10). The factor scores (Zi from equation (1) or Fi) calculated for the training matrix from XLSTAT® were F1=98.10% and F2=1.90%.
(§5) A study was also done to identify different lectins using specific binding interaction between lectins and sugars (Wang, X.; Ramstrom, O.; Yan, M. J. Mat. Chem. 2009, 19, 8944-8949). The lectins used in the study were Con A, SBA, PNA and GSII. The sugars used were D-Mannose, D-Glucose, D-Galactose, α-1,4-mannobiose, α-1,3-galactobiose and N-acetyl-D-glucosamine. These sugars are known to have specific binding to lectins (Jurs, P. Science 1986, 232, 1219-1224). The training matrix was created as four lectins×six sugars×five replicates (Table 12). […] The Wilk's lamda (A) value for the training set was 0.000. […] The 95% confidence ellipses show clear spatial separation, and no overlap between the ellipses is visible. Unlike the weak binding interactions studied in before using non-specific binding sugars, the strong binding sugars show very good class separation.

SBA = biological target: T5, SBA (Glycine max, UniProt P05046); assay: as above; type: binding; set-up: unit: nm; conditions: replicates
T5 construct: purchased Sigma-Aldrich
Excerpt: as §3, §1, §4, §5

[10] = biological target: blindly prepared lectins (U1-U7) (Arachis hypogaea, UniProt P02872); type: binding; set-up: unit not given here; conditions: unknown protein u5 (predicted class PNA)
Method: as §1, §2

[11] = biological target: blindly prepared lectins (U1-U7) (Canavalia ensiformis, UniProt P02866); type: binding; set-up: unit not given here
Method: as §1, §2

[12] = Domain A; cited from earlier work
[13] = Domain B; cited from earlier work
[14] = free glycan; cited from earlier work
[15] = free glycan, solution; cited from earlier work
[16] = unknown protein u1 (predicted class SBA)
[17] = unknown protein u7 (predicted class SBA)
[18] = unknown protein u3 (predicted class Con A)
[19] = unknown protein u4 (predicted class Con A)
[20] = unknown protein u2 (predicted class SBA)
[21] = unknown protein u6 (predicted class SBA)

OC[C@H]1O[C@H](O[C@@H]2[C@@H](O[C@@H]3C(O)O[C@H](CO)[C@@H](O)[C@@H]3O)O[C@H](CO)[C@@H](O)[C@@H]2O)[C@@H](O)[C@@H](O)[C@@H]1O (stereo partly drawn) [2α, 2α-Man3, α-1,2-α-1,2-mannotriose]
Association constant Ka with CVN-Q (CVN-Q; [12]): 2.94 × 10^5 (Domain A); M^−1 | Association constant Ka with CVN-Q (CVN-Q; [13]): 2.33 × 10^4 (Domain B) M^−1 | Kd (CVN-Q; data in brackets, free ligand; read-out: dissociation constant of the free ligand with CVN-Q; cited from earlier work): 15.5 µM | Kd (CVN-M; data in brackets, free ligand; read-out: dissociation constant of the free ligand with CVN-M; cited from earlier work): 3.4 µM | Association constant Ka with CVN-M (CVN-M; [14]): 294000 M⁻¹ | Association constant Ka with CVN-M (CVN-M; free glycan; listed as 2α,2α-Man3; cited from earlier work): 294000 M⁻¹ | Kd (Con A [1]; data in brackets, free ligand; read-out: dissociation constant of the free ligand with Con A; cited from earlier work): 2.97 µM | Association constant Ka with Con A (Con A [1]; [15]): 379000 M⁻¹ | Association constant Ka with Con A (Con A [1]; free glycan, solution; listed as 2α,2α-Man3; cited from earlier work): 379000 M⁻¹

O=C[C@H](O)[C@@H](O)[C@H](O[C@@H]1O[C@H](CO)[C@@H](O)[C@H](O)[C@H]1O)[C@H](O)CO [Cellobiose]
Unknown SPR shift, weak binders [2, 16]: 2.1 | Unknown SPR shift, weak binders [2, 17]: 2.1

OC[C@H]1O[C@H](O[C@@H]2C(O)O[C@H](CO)[C@@H](O)[C@@H]2O)[C@@H](O)[C@@H](O)[C@@H]1O (stereo partly drawn) [Compound 2α-Man2, 2-O-α-D-Mannopyranosyl-D-mannopyranose]
labeling intensity by ConA-FSNPs on carbohydrate microarray (ConA-FSNPs): most intensely | Association constant Ka with CVN-Q (CVN-Q; [12]): 1.43 × 10^3 (Domain A); M^−1 | Association constant Ka with CVN-Q (CVN-Q; [13]): 1.56 × 10^4 (Domain B) M^−1 | Kd (CVN-Q; read-out: dissociation constant of the free ligand with CVN-Q; data in brackets, free ligand; cited from earlier work): 89.8 µM | Association constant Ka with CVN-M (CVN-M; [14]): 1320 M⁻¹ | Kd (CVN-M; read-out: dissociation constant of the free ligand with CVN-M; data in brackets, free ligand; cited from earlier work): 757 µM | Association constant Ka with Con A (Con A [1]; [15]): 41700 M⁻¹ | Kd (Con A [1]; read-out: dissociation constant of the free ligand with Con A; data in brackets, free ligand; cited from earlier work): 24 µM

O=C(O)c1cc(N=C=S)ccc1-c1c2ccc(=O)cc-2oc2cc(O)ccc12 [FITC, fluorescein isothiocyanate]
fluorescence intensity after UV irradiation [3]: about 50%

OC[C@H]1OC(O)[C@H](O)[C@@H](O)[C@H]1O (stereo partly drawn) [Gal, D-(+)-galactose]
Ka (PNA, Peanut Agglutinin): ~10^3 M^−1 | Ka [4]: ~10^3 M^−1

CC(=O)N[C@H]1C(O)O[C@H](CO)[C@H](O)[C@@H]1O (stereo partly drawn) [GalNAc]
Association constant Ka with SBA (SBA (Soybean Agglutinin)): 1.51e+06 M⁻¹ | Association constant Ka with PNA (PNA [5]): 2430 M⁻¹ | Association constant Ka with DBA [6]: 4200 M⁻¹ | Association constant Ka with RCA [7]: 48400 M⁻¹

OC[C@H]1O[C@@H](O[C@H]2[C@H](O)[C@@H](O)[C@@H](O)O[C@@H]2CO)[C@H](O)[C@@H](O)[C@H]1O [Lac]
labeling intensity by ConA-FSNPs on carbohydrate microarray (ConA-FSNPs): slightly less

Arabinose
SPR shift, training matrix (Con A [8]): 1.9 and 0.8 and 1.1 | SPR shift, training matrix (PNA [9]): 2.1 and 1.8 and 1.6 | SPR shift, training matrix (SBA): 5.1 and 5.9 and 4.5 | Unknown SPR shift, weak binders [10]: 1.9 | Unknown SPR shift, weak binders [11, 18]: 1.1 | Unknown SPR shift, weak binders [11, 19]: 1 | Unknown SPR shift, weak binders [2, 16]: 4.5 | Unknown SPR shift, weak binders [2, 20]: 5 | Unknown SPR shift, weak binders [2, 21]: 4.5 | Unknown SPR shift, weak binders [2, 17]: 4.5

Dextran
labeling intensity by ConA-FSNPs on carbohydrate microarray (ConA-FSNPs): slightly less

Lactose
SPR shift, training matrix (Con A [8]): 6.2 and 5.1 and 7.9 | SPR shift, training matrix (PNA [9]): 3.7 and 2 and 2.4 | SPR shift, training matrix (SBA): 1.5 and 3.7 and 1.1 | Unknown SPR shift, weak binders [10]: 2.5 | Unknown SPR shift, weak binders [11, 18]: 5.5 | Unknown SPR shift, weak binders [11, 19]: 5.7 | Unknown SPR shift, weak binders [2, 16]: 1.6 | Unknown SPR shift, weak binders [2, 20]: 1.1 | Unknown SPR shift, weak binders [2, 21]: 1.6 | Unknown SPR shift, weak binders [2, 17]: 1.1
